The source of these data is patent publication EP0306160A2, “Molluscicides” (BRITISH TECHNOLOGY GROUP LIMITED, priority 1987, dated 1989).

Like-named read-outs stand apart in the source and are kept apart here.

What all share (assay type): in vivo
Series [1] relates to slugs. As to the kind of experiment: Field comparison of baits (grass/clover), Table VII. As to conditions: first 4 days of trial; bait 10 % ai, 2.5 % sucrose (PP pellets 6 % ai, Draza pellets 4 % ai). An excerpt:
In Table VII there is presented a comparison of the efficacy of present iron and aluminium chelates with metaldehyde and methiocarb under field conditions (grass/clover).

The test system of another series is Deroceras reticulatum. Put plainly: Bait bioassay with increasing concentrations in standard bait (Examples 19-35). The conditions noted are these: for Kill: 4 days. As for the experimental part: Test compounds were incorporated into a standard wheat-flour-based edible carrier containing 10% paraffin wax binder and 2.5% sucrose phagostimulant, in increasing concentrations 0, 1, 4, 7, 10, 13 and 16% a.i.
Groups of ten field-collected D. reticulatum in the weight range 400-600 mg were confined with 0.5 g DM test bait at each concentration for a period of 4 days under a regime of 12 h dark @ 5°C and 12 light @ 15°C. Weight of bait eaten and number of slugs killed were recorded. Each group of compounds was tested against a concurrently run Al(ac.ac)₃ standard bait.
In Examples 23 to 35, where six groups of ten slugs are offered bait containing 1,4,7,10,13 or 16% a.i., have been reduced to two values, (i), the total amount of a.i. ingested (mg) which gives an indication of the palatability of the compound, and (ii), the total number of slugs killed (x/60) which, with (i), gives an indication of its relative toxicity.

Series [2] concerns grey field slugs, Deroceras reticulatum. Put plainly: Contact with coated glass plate. As to conditions: for LC₅₀ On glass (50 min)., Mean: mean of all tests. Here is the method: (§1) All laboratory tests were made with field-collected grey field slugs, Deroceras reticulatum (Pulmonata, Limacidae) and also with Arion hortensis in the weight range 0.4-0.6g. They were held in polythene bowls on wet filter paper in a controlled environment cabinet cycling 12 hours light at 15°C and 12 hours dark at 5°C. Voluntary feeding tests were made under these conditions but all other laboratory bioassays were carried out at 10°C constant temperature with an overnight pre-treatment period also at 10°C.
Groups of ten slugs were placed foot-down on sheets of glass, 10 cm x 10 cm, previously coated with an aqueous solution of suspension of test chemical and air dried to leave a deposit of known weight per unit area. Slugs were confined to a treated area for a period of 50 minutes at 10°C on plates with increasing surface loadings, then removed and held in wet filter paper-floored petri dishes with food. The number of dead slugs after seven days was recorded and the values used to calculate median lethal surface concentrations ('LC₅₀') for each compound by probit analysis.

Series [3] has the same test system. Put plainly: Contact with treated soil surface. The conditions noted are these: mean of all tests. Here is the method:
as §1
Groups of ten slugs were held in plastic seed trays, 20 x 34 cm x 5 cm deep, filled to a depth of 1 cm with standard soil, a sandy clay loam from Rothamsted Farm, with a pH in water of 5.2, previously oven-dried, sieved (2 mm mesh), and rewetted to field capacity in the trays. Test chemicals were mixed with 5g dry soil, ground together and sprinkled on to the wet soil surface. Slugs were confined to the treated surface by a 16 v pulsed DC electric fence attached to the tray sides. Trays were covered to maintain a high Relative Humidity and food was provided. Dead slugs were removed daily and the final mortality count made after 10 days.

For series [4] the test system is unchanged. As to the kind of experiment: Stomach poison action, voluntary feeding (wheatmeal bait). As for the experimental part: as §1
Test chemicals were offered to slugs at a range of concentrations in a wheat-meal based formulation, groups of ten slugs being confined in 15 cm crystallising dishes containing only wet filter paper and a solid watch glass filled with 3 g (dry weight) of test bait for four 24-hour cycles […]

The test system of series [5] is slugs. As to the kind of experiment: Laboratory test, standard baits containing 1% metal ion, no alternative food (Example 17). As to conditions: 3 replicates of 10 slugs; standard bait containing 1% metal ion. As for the experimental part:
as §1
Laboratory tests where 3 replicates of 10 slugs were confined with standard baits containing 1% metal ion in different compounds, and no alternative food supplied, gave the following results: Aluminium sulphate (Al₂(SO₄)₃): 0/10, 0/10, 0/10 killed Aluminium acetylacetonate: 10/10, 10/10, 10/10 killed (Ex 17)

Regarding `CC1OC(C)OC(C)OC(C)O1` (centres unmarked) [Metaldehyde], the “Total Slugs 'Dead' or 'Immobilised' (Cumulative) Total D+I” value with slugs [1] is 461.

Regarding `CCC(=O)C=C(C)[O][Al]([O]C(C)=CC(=O)CC)[O]C(C)=CC(=O)CC` [Example 20, Tris (2,4-hexanedionato) Al III], the Kill amounted to 1 x/10 with Deroceras reticulatum (1 % a.i. in standard bait); 0 x/10 in the series on Deroceras reticulatum (4 % a.i. in standard bait); 4 x/10 in the series with Deroceras reticulatum (7 % a.i. in standard bait); 1 x/10 in the series with Deroceras reticulatum (10 % a.i. in standard bait); 5 x/10 with Deroceras reticulatum (13 % a.i. in standard bait); 5 x/10 with Deroceras reticulatum (16 % a.i. in standard bait).

Regarding Aluminium sulphate [reference compound], the “LC₅₀ values on glass” value in series [2] is “around 20 µg metal cm⁻²”. Further, the “LC₅₀ On glass (50 min)., Mean” value in series [2] is given as 20.9 µg metal cm⁻². Besides, in series [3], the “LC₅₀ On soil (10 days), Mean” value is 207.4 µg metal/cm². The “Mortality after 7 days” value in series [4] (0.01 % Al in wheatmeal bait) is 1 x/10; in series [4] (0.03 % Al in wheatmeal bait) it was 2 x/10; in series [4] (0.1 % Al in wheatmeal bait), 3 x/10; in series [4] (0.3 % Al in wheatmeal bait), 3 x/10; in series [4] (1.0 % Al in wheatmeal bait), 5 x/10; in series [4] (3.0 % Al in wheatmeal bait), 2 x/10. Further, the killed in the series on slugs [5] is 0/10.

`CNC(=O)Oc1cc(C)c(SC)c(C)c1` [Methiocarb]: the “Total Slugs 'Dead' or 'Immobilised' (Cumulative) Total D+I” value in the series with slugs [1] amounted to 557.

`CC(=O)C=C(C)[O][Al]([O]C(C)=CC(C)=O)[O]C(C)=CC(C)=O` [Example 19, Tris (2,4-pentanedionato) Al III]: in series [2] (individual tests, 50 min contact at 10°C, dead after seven days, bracketed values estimated, listed as Al^III acetylacetonate), the “LC₅₀ On glass (50 min).” value was “(10-100)(Example 1) µg metal cm²”. For the same compound, the “LC₅₀ On glass (50 min)., Mean” value in series [2] was “(< 100) µg metal cm²”. The “LC₅₀ On soil (10 days), Mean” value in series [3] was 34.1 µg metal/cm². Also, the mortality (usually the percentage killed) at 0.01 % in series [4] (Deroceras reticulatum, po, 168 h, 0.01 % Al in wheatmeal bait, read-out: Mortality after 7 days) was found to be 10%. For the same compound, the mortality at 0.03 % in series [4] (Deroceras reticulatum, po, 168 h, 0.03 % Al in wheatmeal bait, read-out: Mortality after 7 days) came out at 10%. For the same compound, the mortality at 0.1 % in series [4] (Deroceras reticulatum, po, 168 h, 0.1 % Al in wheatmeal bait, read-out: Mortality after 7 days) was 20%; in series [4] (Deroceras reticulatum, po, 216 h, 0.1 % Metal in wheatmeal bait (Table III), read-out: Mortality after 9 days), 40%. Moreover, in series [4] (Deroceras reticulatum, po, 168 h, 0.3 % Al in wheatmeal bait, read-out: Mortality after 7 days), the mortality at 0.3 % is 40%. In addition, the mortality at 1 % was determined as 100% in series [4] (Deroceras reticulatum, po, 168 h, 1.0 % Al in wheatmeal bait, read-out: Mortality after 7 days); 80% in series [4] (Deroceras reticulatum, po, 216 h, 1.0 % Metal in wheatmeal bait (Table III), read-out: Mortality after 9 days); 100% in series [4] (Deroceras reticulatum, po, at 1 per cent Aluminium content, non-choice test (Table II), read-out: mortality). In addition, the mortality at 3 % in series [4] (Deroceras reticulatum, po, 168 h, 3.0 % Al in wheatmeal bait, read-out: Mortality after 7 days) amounted to 100%. In addition, in series [4] (Deroceras reticulatum, po, 216 h, 0.5 % Metal in wheatmeal bait (Table III), read-out: Mortality after 9 days), the mortality at 0.5 % is 80%. Also, the mortality at 5 % in series [4] (Deroceras reticulatum, po, 216 h, 5.0 % Metal in wheatmeal bait (Table III), read-out: Mortality after 9 days) came to 80%. Besides, in series [4] (Deroceras reticulatum, po, 216 h, 10.0 % Metal in wheatmeal bait (Table III), read-out: Mortality after 9 days), the mortality at 10 % came to 80%. In addition, the killed in the series with slugs [5] is 10/10. Further, the Kill came out at 0 x/10 in the series on Deroceras reticulatum (1 % a.i. in standard bait); 0 x/10 in the series on Deroceras reticulatum (4 % a.i. in standard bait); 6 x/10 in the series with Deroceras reticulatum (7 % a.i. in standard bait); 7 x/10 in the series with Deroceras reticulatum (10 % a.i. in standard bait); 8 x/10 with Deroceras reticulatum (13 % a.i. in standard bait); 8 x/10 in the series with Deroceras reticulatum (16 % a.i. in standard bait).

Regarding `CCC(=O)C=C(CC)[O][Al]([O]C(=CC(=O)CC)CC)[O]C(=CC(=O)CC)CC` [Example 21, Tris (3,5-heptanedionato) Al III], the Kill in the series on Deroceras reticulatum (1 % a.i. in standard bait) came out at 1 x/10; with Deroceras reticulatum (4 % a.i. in standard bait) it was 3 x/10; in the series with Deroceras reticulatum (7 % a.i. in standard bait) it was 0 x/10; in the series on Deroceras reticulatum (10 % a.i. in standard bait), 1 x/10; in the series on Deroceras reticulatum (13 % a.i. in standard bait), 1 x/10; in the series on Deroceras reticulatum (16 % a.i. in standard bait), 2 x/10.

Take “Tris (1-dimethoxy-2, 4-pentanedionato) Al III [Example 29]”: the Slugs dead in the series on Deroceras reticulatum (total over six groups of ten slugs offered bait containing 1,4,7,10,13 or 16% a.i.) turned out to be 14 x/10.
